Test results reported in ChEMBL document CHEMBL1909046, “DrugMatrix in vitro pharmacology data”.

What was measured:
[1] = molecular target: Histamine H2 receptor (Homo sapiens, UniProt P25021); type: cell membranes, CHO-K1, Membrane; details: cho-k1
[2] = molecular target: Glycine receptor (Rattus norvegicus, UniProt P22771+P24524+P07727+P20781); type: cell membranes, Wistar, Spinal cord, Membrane
[3] = molecular target: T1, 5-hydroxytryptamine receptor 1A (Rattus norvegicus, UniProt P19327); type: cell membranes, CHO-K1, Membrane; details: cho-k1
T1 sequence (P19327 whole entry): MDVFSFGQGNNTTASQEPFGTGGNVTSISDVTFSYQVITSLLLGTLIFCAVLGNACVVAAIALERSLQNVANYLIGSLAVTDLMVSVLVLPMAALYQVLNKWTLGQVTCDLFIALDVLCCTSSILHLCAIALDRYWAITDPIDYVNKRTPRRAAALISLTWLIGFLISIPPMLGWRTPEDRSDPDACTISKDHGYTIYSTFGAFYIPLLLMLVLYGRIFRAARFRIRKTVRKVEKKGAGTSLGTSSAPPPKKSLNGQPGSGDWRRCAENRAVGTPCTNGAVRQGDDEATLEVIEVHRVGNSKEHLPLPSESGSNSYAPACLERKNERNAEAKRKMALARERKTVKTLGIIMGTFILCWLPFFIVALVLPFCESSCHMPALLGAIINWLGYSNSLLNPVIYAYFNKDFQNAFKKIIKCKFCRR

[4] = molecular target: Prostaglandin G/H synthase 1 (Homo sapiens, UniProt P23219); assay: biochemical; type: tissue-based, Platelet; details: platelet;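 also: inhibition of COX-1 enzyme activity, with arachidonic acid supplied as substrate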
Prostaglandin G/H synthase 1, sequence (P23219 whole entry): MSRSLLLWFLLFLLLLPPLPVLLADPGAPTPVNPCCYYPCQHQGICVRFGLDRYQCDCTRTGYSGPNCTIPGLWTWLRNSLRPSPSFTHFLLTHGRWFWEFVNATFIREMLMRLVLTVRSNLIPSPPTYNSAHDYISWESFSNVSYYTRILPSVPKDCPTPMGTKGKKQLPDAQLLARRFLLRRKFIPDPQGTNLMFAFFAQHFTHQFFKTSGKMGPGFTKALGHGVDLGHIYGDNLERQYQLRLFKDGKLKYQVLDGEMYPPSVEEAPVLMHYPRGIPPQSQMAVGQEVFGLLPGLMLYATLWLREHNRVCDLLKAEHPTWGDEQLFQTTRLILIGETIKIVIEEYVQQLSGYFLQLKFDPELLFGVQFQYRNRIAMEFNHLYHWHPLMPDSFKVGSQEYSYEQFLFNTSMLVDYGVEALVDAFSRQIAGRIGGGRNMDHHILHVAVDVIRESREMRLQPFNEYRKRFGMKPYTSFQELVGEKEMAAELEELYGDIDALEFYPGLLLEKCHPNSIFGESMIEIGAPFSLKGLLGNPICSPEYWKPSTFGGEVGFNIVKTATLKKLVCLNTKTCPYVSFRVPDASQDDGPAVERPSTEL

[5] = molecular target: Melanocortin receptor 3 (Homo sapiens, UniProt P41968); type: cell membranes, HEK293, Membrane; details: hek293
Melanocortin receptor 3, sequence (P41968 whole entry): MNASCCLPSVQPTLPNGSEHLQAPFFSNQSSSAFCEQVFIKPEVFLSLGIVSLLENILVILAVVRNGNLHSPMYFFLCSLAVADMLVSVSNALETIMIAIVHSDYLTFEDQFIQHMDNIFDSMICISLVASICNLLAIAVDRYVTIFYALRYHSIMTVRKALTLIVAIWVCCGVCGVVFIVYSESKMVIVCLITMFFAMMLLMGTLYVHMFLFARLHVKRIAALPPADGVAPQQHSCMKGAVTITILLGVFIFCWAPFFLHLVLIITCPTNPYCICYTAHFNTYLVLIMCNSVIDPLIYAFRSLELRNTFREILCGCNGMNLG
Also: in other assays of this panel Not Active means under 50% inhibition at 10 µM.

Histamine H2 receptor, sequence (P25021 whole entry): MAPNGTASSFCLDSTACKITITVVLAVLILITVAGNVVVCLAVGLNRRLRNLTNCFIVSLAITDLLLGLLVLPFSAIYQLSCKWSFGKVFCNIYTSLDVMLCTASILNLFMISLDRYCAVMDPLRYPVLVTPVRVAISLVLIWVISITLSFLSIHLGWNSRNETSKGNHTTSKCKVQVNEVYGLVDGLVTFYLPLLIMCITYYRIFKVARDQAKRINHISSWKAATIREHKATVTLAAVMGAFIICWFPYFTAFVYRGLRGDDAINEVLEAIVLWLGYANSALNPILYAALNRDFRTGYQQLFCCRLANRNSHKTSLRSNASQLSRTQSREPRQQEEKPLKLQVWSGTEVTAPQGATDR

SODIUM ORTHOVANAD
Not Active: IC50 [1] | Ki [1] | IC50 [2] | Ki [2] | IC50 [3] | Ki [3] | IC50 [4] | Ki [4] | IC50 [5] | Ki [5]
